The values that follow come from US4127687A, “Prevention of fouling of marine structures such as boat hulls” (Rohm and Haas Company, priority 1976, dated 1978).

The structures appear in SMILES notation.

In one data set the test system is weed. Nature of the data set: Membrane Diffusion Raft Trials, weed control. Format: in vivo, grass-like algal growth common in sea water. Conditions: membrane test, average 15 to 16 weeks of immersion. An excerpt: (§1) 1). FIELD TESTS: - Membrane Diffusion Raft Trials
(§2) A specially constructed raft provides three types
(§3) a). Waterline Well illuminated, aerated
(§4) b). Flats Poorly illuminated deeper
(§5) A known quantity of the test compound is placed into a cylindrical plastic container whose open end is then covered with a membrane of known porosity; the complete unit is attached to the appropriate raft panel so that the poison can freely diffuse into the free water layer around it. Regular inspections, recording time and quantity of settlement, allow a life history of each membrane trial to be constructed. Each raft panel contains 35 compounds to be evaluated together with 4 standard poisons and 1 non-toxic membrane for control.
(§6) The behavior on the raft can thus be compared with that of the standard poisons and the non-toxic control. At normal loading a membrane over the standard poisons would be free from macro-fouling after six months immersion. Compounds showing selective effects against restricted groups of fouling organisms also show up by membrane testing.
(§7) After the completion of membrane tests the contents of all containers are checked visually for poison loss. An empty container indicates an unacceptably high solubility for long term effectiveness; where the poison loss is low the compound is tested in one of two ways depending on its performance against fouling.
(§8) In the membrane tests, the results of approximately 140 compounds evaluated appear in Table 1. The symbols "0" means no detactable effect, the symbol "+" indicates the compound is active against the given fouling organism, and the symbol "++" means that the compound appears to be effective over at least about a four month period for essentially preventing fouling activity by the given organism. In the Table, "weed" designates a grass-like algal growth common in sea water.
(§9) Membrane Test results are of an average 15 to 16 weeks of immersion,
(§10) ^a 0 = none, + = some, + + = effective.

A short description of data set [1]: Amount of toxicant remaining in the test container after membrane diffusion raft tests. Format: physicochemical. On the set-up: key: 0: empty or trace; +: some; + +: ample. Conditions: after completion of membrane diffusion raft tests.
Description: as §5, §7
^b Amount of toxicants remaining in the test container after the
completion of the membrane diffusion raft tests: 0 = empty or trace, + =

The test system of another data set is barnacle. Briefly: Membrane Diffusion Raft Trials, barnacle control. Conditions: membrane test, average 15 to 16 weeks of immersion. The data set is classed as in vivo, barnacles.
Description: as §1, §2, §3, §4, §5, §6, §7, §8, §9, §10
^f The 1975 Spring settlement of barnacles was very meager and the […]

As to `CCCCCCCCCCCCCCn1sc(Cl)cc1=O` [Example 24], the “Weed Control” value with weed is reported as 0. Moreover, the “Contents at the end of test (amount of toxicants remaining in the test container)” value in data set [1] is on record as “+ +”. Also, the “Barnacle Control” value in the data set with barnacle is “+ +”.

With `O=c1ccsn1CCc1ccc(Cl)cc1` [Example 9], the “Weed Control” value with weed was 0. In addition, the “Contents at the end of test (amount of toxicants remaining in the test container)” value in data set [1] stood at 0. Moreover, the “Barnacle Control” value with barnacle was determined as 0.

As for `Cc1ccc(-n2sc(Cl)c(Cl)c2=O)cc1Cl` [Example 81], the “Weed Control” value with weed came out at 0. The “Contents at the end of test (amount of toxicants remaining in the test container)” value in data set [1] was “+ +”. Moreover, in the data set with barnacle, the “Barnacle Control” value worked out at 0.

As to `CCCCCCCCCCn1sc(Cl)c(Br)c1=O` [Example 89], the “Weed Control” value in the data set with weed turned out to be 0. Further, in data set [1], the “Contents at the end of test (amount of toxicants remaining in the test container)” value was “+ +”. In addition, the “Barnacle Control” value in the data set on barnacle stood at 0.

Turning to `O=c1c(Cl)c(Cl)sn1-c1cc(Cl)cc(Cl)c1` [Example 77], the “Weed Control” value in the data set with weed turned out to be 0. In addition, in data set [1], the “Contents at the end of test (amount of toxicants remaining in the test container)” value is listed as “+ +”. In the data set with barnacle, the “Barnacle Control” value is 0.

`O=c1cc(Cl)sn1-c1ccc(Cl)c(Cl)c1` [Example 37]: the “Weed Control” value in the data set on weed was “+”. Further, the “Contents at the end of test (amount of toxicants remaining in the test container)” value in data set [1] was “+ +”. In the data set with barnacle, the “Barnacle Control” value is recorded as “+”.

With `Cc1c(Cl)sn(-c2ccc(Cl)c(C(F)(F)F)c2)c1=O` [Example 131], in the data set with weed, the “Weed Control” value was found to be 0. The “Contents at the end of test (amount of toxicants remaining in the test container)” value in data set [1] is “+ +”. Further, the “Barnacle Control” value in the data set with barnacle came out at 0.

In the case of `CCCCCCCCCCCCn1sc(Br)c(Br)c1=O` [Example 97], the “Weed Control” value with weed is 0. In addition, the “Contents at the end of test (amount of toxicants remaining in the test container)” value in data set [1] was “+ +”. In the data set on barnacle, the “Barnacle Control” value turned out to be 0.

In the case of `CCCCCCCCCCn1sc(Br)c(Br)c1=O` [Example 96], in the data set with weed, the “Weed Control” value was determined as 0. Further, in data set [1], the “Contents at the end of test (amount of toxicants remaining in the test container)” value is on record as “+ +”. Further, the “Barnacle Control” value in the data set on barnacle is reported as 0.

In the case of `CCCCCCCCCCCCCCn1sc(Cl)c(C)c1=O` [Example 106], the “Weed Control” value with weed is 0. In data set [1], the “Contents at the end of test (amount of toxicants remaining in the test container)” value is recorded as “+ +”. Further, the “Barnacle Control” value with barnacle is 0.

Take `Cc1c(Cl)sn(C)c1=O` [Example 100]: in the data set on weed, the “Weed Control” value is given as 0. The “Contents at the end of test (amount of toxicants remaining in the test container)” value in data set [1] is listed as 0. For the same molecule, the “Barnacle Control” value with barnacle worked out at 0.

`CCCCCCCCCCCCn1sc(Cl)c(C)c1=O` [Example 105]: the “Weed Control” value with weed is on record as 0. In addition, the “Contents at the end of test (amount of toxicants remaining in the test container)” value in data set [1] is on record as “+ +”. In addition, the “Barnacle Control” value in the data set with barnacle is on record as “+”.

As to `Cc1csn(-c2cccc(Cl)c2)c1=O` [Example 138], the “Weed Control” value in the data set with weed is given as “+”. For the same molecule, in data set [1], the “Contents at the end of test (amount of toxicants remaining in the test container)” value is “+ +”. For the same molecule, the “Barnacle Control” value with barnacle came out at 0.

With `CCCCc1ccc(-n2sc(Cl)c(Cl)c2=O)cc1` [Example 83], the “Weed Control” value in the data set on weed came out at 0. Moreover, the “Contents at the end of test (amount of toxicants remaining in the test container)” value in data set [1] was “+ +”. In addition, the “Barnacle Control” value in the data set with barnacle is listed as “+”.

With `Cc1cc(-n2sc(Cl)c(C)c2=O)ccc1Br` [Example 133], the “Weed Control” value in the data set on weed is 0. For the same molecule, in data set [1], the “Contents at the end of test (amount of toxicants remaining in the test container)” value is listed as “+ +”. Further, in the data set with barnacle, the “Barnacle Control” value stood at 0.

Take `Cc1c(Cl)sn(-c2ccc(Oc3ccccc3)cc2)c1=O` [Example 124]: the “Weed Control” value in the data set on weed stood at 0. For the same molecule, in data set [1], the “Contents at the end of test (amount of toxicants remaining in the test container)” value is recorded as “+ +”. Further, in the data set with barnacle, the “Barnacle Control” value is 0.

For `CCCCCCCCn1sc(Br)c(C)c1=O` [Example 102], in the data set with weed, the “Weed Control” value is on record as “+”. Besides, in data set [1], the “Contents at the end of test (amount of toxicants remaining in the test container)” value came to 0. The “Barnacle Control” value with barnacle was “+”.

Regarding `O=c1c(Br)csn1CCc1ccccc1` [Example 52], the “Weed Control” value in the data set on weed is 0. Also, the “Contents at the end of test (amount of toxicants remaining in the test container)” value in data set [1] is “+”. Besides, the “Barnacle Control” value in the data set with barnacle was 0.
